From patent US20070004634A1 (Novo Nordisk A/S, priority 1998, published 2007)
Like-named read-outs stand apart in the source and are kept apart here. Blank lines part the entries; values can stand above or below the compound they belong to. Residues, ends and D or L forms follow the SMILES beside them. No end group written: not given here.

Columns and labels:
[1] = target: T1, soluble human insulin receptor-immunoglobulin heavy chain chimera (sIR-Fc) (Homo sapiens, UniProt P06213); assay: TR-FRET competition with biotinylated RP9 (b-RP9) for sIR-Fc; format: binding; conditions: for Hill, sIR-Fc, b-RP9, FRET: Hill slope, target sIR-Fc, label b-RP9, TR-FRET
T1 construct: replacing the transmembrane domain and the intracellular domain of IR with constant domains from immunoglobulin Fc or λ subunits; made in house; host or cells: human embryonic kidney 293 cells (Bass et al.)

[2] = test system: free fat cells (adipocytes); assay: Adipocyte / free fat cell (FFC) assay, 3H glucose incorporation into lipid
[3] = target: T1, soluble human insulin receptor-immunoglobulin heavy chain chimera (sIR-Fc); assay: TR-FRET competition with biotinylated S175 (b-S175) for sIR-Fc; format: binding; conditions: target sIR-Fc, label b-S175; for Hill, sIR-Fc, b-S175, FRET: Hill slope
[4] = target: T2, soluble HIR ectodomain (sIR) (Homo sapiens, UniProt P06213); assay: Fluorescence polarization, competition with FITC-RP9 for sIR; format: binding; conditions: Hill slope, target sIR, label FITC-RP9
T2 construct: soluble HIR ectodomain (sIR); Kristensen et al., 1998

IR [5] = target: T3, IR (Homo sapiens, UniProt P06213); assay: IR-IC50 Biacore; set-up: replacing the transmembrane domain and the intracellular domain of IR with constant domains from immunoglobulin Fc or λ subunits; made in house; host or cells: human embryonic kidney 293 cells (Bass et al.)
Target sequence in this assay (P06213 28-758 limits assumed): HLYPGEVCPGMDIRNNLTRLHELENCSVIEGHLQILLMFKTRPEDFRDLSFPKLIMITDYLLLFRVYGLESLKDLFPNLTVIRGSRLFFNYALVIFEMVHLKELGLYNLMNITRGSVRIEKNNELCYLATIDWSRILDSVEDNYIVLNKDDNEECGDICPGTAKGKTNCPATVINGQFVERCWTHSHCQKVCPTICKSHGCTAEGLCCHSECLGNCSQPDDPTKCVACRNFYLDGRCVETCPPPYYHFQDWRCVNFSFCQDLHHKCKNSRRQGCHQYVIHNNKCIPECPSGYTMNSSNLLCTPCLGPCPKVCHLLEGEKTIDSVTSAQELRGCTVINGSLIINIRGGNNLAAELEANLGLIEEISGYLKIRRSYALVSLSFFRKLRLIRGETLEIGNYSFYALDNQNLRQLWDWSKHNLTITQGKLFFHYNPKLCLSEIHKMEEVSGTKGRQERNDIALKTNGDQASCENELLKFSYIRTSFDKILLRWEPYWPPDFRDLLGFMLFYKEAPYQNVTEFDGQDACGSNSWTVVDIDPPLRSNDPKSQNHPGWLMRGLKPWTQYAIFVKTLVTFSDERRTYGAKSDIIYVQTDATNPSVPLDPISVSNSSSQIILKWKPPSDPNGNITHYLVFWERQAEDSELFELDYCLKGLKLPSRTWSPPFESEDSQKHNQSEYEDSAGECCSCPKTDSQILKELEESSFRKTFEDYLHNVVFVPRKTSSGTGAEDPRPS
Target sequence in this assay (P06213 763-1382 limits assumed): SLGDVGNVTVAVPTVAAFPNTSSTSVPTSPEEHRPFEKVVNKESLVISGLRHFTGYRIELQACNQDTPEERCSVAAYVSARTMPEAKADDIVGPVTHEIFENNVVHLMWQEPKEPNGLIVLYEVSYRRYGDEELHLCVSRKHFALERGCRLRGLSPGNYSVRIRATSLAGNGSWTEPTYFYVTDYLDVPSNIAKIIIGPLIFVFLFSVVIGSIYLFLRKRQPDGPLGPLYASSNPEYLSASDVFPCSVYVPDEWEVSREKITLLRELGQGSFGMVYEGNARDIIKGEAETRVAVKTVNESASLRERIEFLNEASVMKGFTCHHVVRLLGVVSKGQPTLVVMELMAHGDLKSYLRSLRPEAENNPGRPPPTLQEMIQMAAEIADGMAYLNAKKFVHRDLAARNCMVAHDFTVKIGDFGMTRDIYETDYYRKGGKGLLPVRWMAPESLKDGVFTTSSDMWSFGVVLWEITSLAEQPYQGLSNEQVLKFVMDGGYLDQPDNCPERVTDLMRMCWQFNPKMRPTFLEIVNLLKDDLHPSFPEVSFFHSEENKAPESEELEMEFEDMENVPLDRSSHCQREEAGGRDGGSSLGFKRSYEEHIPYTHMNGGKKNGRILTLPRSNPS

[6] = target: T1, soluble human insulin receptor-immunoglobulin heavy chain chimera (sIR-Fc); assay: Fluorescence polarization, competition with FITC-RP9 for sIR-Fc; format: binding; conditions: for Hill, sIR-Fc, FITC-RP9, FP: Hill slope
MiaPaCa cells = assay: MiaPaCa cell proliferation assay, IGF-1R agonist format; format: cell-based, human; conditions: for MiaPaCa Agonist: MiaPaCa cell proliferation, agonist effect
IGF-1R [7] = target: T4, IGF-1R (Homo sapiens, UniProt P08069); assay: TR-FRET competition with biotinylated-20E2 for rhIGF-1R; conditions: TR-FRET (rhIGF-1R, b-20E2) versus FP (sIR-Fc), summary of Table 22
[8] = test system: FDC-P2 cells expressing the IL-3 and human IGF-1R receptors; assay: IGF-1 proliferation assay in FDC-P2 cells, agonist format; conditions: for agonist activity at IGF-1R, in words / EC50: FDC-P2 cells
MCF-7 cells = assay: MCF-7 cell proliferation assay, IGF-1R agonist format; format: cell-based, human; conditions: for MCF-7 Agonist: MCF-7 cell proliferation, agonist effect
Description: ; FIGS. 65A-65F), and were used for subsequent experiments.

[9] = test system: FDC-P2 cells expressing the IL-3 and human IGF-1R receptors; assay: IGF-1 proliferation assay in FDC-P2 cells, antagonist format; conditions: FDC-P2 cells
IGF-1R [10] = target: T4, IGF-1R; assay: Phage ELISA, binding of phage clones to IGF-1R (ratio over background); conditions: ratio of IGF-1R divided by ratio of IR
IR [11] = target: T3, IR; assay: Phage ELISA, binding of phage clones to IR (ratio over background); conditions: ratio of IR divided by ratio of IGF-1R
Target sequence in this assay (P06213 28-758 limits assumed): as the sequence (P06213 28-758 limits assumed) above
Target sequence in this assay (P06213 763-956 limits assumed): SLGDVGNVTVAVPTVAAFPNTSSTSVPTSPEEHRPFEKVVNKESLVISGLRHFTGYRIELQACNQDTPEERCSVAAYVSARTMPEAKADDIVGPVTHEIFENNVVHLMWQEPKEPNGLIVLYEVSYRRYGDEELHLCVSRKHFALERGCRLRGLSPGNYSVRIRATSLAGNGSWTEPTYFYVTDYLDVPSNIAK

[12] = target: T5, human insulin receptor (HIR) (Homo sapiens, UniProt P06213); assay: Insulin receptor binding, competition with 125I-labeled insulin (HIR Kd)
T5 construct: made in house

[13] = test system: soluble human insulin mini-receptor (mIR); assay: Fluorescence polarization, competition with FITC-RP9 for mIR; format: binding
Experimental: The FP assays were performed in a 384-well black microplate with a final volume of 30 μl.

[14] = free fat cell assay class, Table 9
[15] = MBP-fusion or recombinant peptide as listed
[16] = target sIR-Fc, label FITC-RP9, fluorescence polarization

T4 sequence (P08069 31-736 limits assumed): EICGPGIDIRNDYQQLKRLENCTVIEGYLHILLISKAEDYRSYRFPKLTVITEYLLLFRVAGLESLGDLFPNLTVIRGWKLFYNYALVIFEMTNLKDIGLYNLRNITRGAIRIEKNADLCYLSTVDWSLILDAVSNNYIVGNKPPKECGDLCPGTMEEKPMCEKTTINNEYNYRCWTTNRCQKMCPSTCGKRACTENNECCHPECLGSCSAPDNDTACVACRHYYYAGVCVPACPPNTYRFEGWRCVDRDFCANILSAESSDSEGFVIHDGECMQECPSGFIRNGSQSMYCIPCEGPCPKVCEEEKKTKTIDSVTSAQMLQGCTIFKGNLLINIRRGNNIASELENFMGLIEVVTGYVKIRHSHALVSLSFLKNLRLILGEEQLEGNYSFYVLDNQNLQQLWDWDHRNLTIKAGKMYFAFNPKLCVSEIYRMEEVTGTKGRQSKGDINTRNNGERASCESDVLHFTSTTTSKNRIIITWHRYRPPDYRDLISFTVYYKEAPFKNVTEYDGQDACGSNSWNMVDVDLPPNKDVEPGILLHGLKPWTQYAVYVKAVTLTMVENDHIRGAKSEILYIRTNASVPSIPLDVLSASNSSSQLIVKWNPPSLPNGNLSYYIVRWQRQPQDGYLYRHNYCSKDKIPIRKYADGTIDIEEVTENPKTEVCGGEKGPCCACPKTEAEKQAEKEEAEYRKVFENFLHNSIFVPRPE
T4 sequence (P08069 741-935 limits assumed): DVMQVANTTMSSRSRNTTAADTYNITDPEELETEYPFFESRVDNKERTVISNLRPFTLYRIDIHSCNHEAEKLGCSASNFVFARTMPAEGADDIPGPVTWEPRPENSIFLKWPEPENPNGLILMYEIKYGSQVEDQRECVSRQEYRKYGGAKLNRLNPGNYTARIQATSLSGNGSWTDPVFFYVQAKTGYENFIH
T1 sequence (P06213 28-758 limits assumed, stated change not applied): as the sequence (P06213 28-758 limits assumed) above
T1 sequence (P06213 763-956 limits assumed, stated change not applied): as the sequence (P06213 763-956 limits assumed) above
T5 sequence (P06213 28-758 limits assumed): as the sequence (P06213 28-758 limits assumed) above
T5 sequence (P06213 763-1382 limits assumed): as the sequence (P06213 763-1382 limits assumed) above
T2 sequence (P06213 28-758 limits assumed): as the sequence (P06213 28-758 limits assumed) above
T2 sequence (P06213 763-956 limits assumed): as the sequence (P06213 763-956 limits assumed) above

Compound: CC(C)C[C@H](NC(=O)[C@H](CCC(N)=O)NC(=O)[C@H](CCCNC(=N)N)NC(=O)[C@H](CCC(=O)O)NC(=O)[C@H](Cc1ccccc1)NC(=O)[C@H](Cc1c[nH]c2ccccc12)NC(=O)[C@H](CC(=O)O)NC(=O)[C@H](Cc1ccc(O)cc1)NC(=O)[C@H](Cc1ccccc1)NC(=O)[C@H](CO)NC(=O)[C@@H](N)CCC(=O)O)C(=O)NCC(=O)O [Peptide S390]
Hill, sIR-Fc, b-RP9, FRET [1]: −0.49
activity in the free fat cell (FFC) assay / at IR, in words [2]: potency similar to full-length RP9 monomer peptides
FFC ([2]; Table 6, free fat cell assay): +
FFC [2, 14]: +
FFC ([2]; free fat cell assay potency class, Table 7): +
Hill, sIR-Fc, b-S175, FRET [3]: −0.49
Hill, sIR, FITC-RP9, FP [4]: −0.64

Compound: QSFYDYIEELLGGEWKK [Peptide 20E2-PD1-IR]
IC50 (IR [5]): > 5 µM

Compound: CC[C@H](C)[C@H](NC(=O)CN)C(=O)N[C@H](C(=O)N[C@@H](CO)C(=O)N[C@@H](CCC(N)=O)C(=O)N[C@@H](CO)C(=O)N[C@H]1CSSC[C@@H](C(=O)N[C@@H](Cc2c[nH]c3ccccc23)C(=O)O)NC(=O)[C@H](Cc2c[nH]c3ccccc23)NC(=O)[C@H](Cc2c[nH]c3ccccc23)NC(=O)[C@@H]2CCCN2C(=O)[C@H](CC(=O)O)NC(=O)[C@H](CO)NC(=O)[C@H](C(C)C)NC(=O)[C@H](CCC(N)=O)NC(=O)CNC(=O)[C@H](C)NC(=O)[C@H](Cc2ccccc2)NC(=O)[C@H](Cc2c[nH]c3ccccc23)NC(=O)[C@H](CC(=O)O)NC(=O)[C@H](Cc2ccc(O)cc2)NC(=O)[C@H](Cc2ccccc2)NC(=O)[C@H](CO)NC(=O)[C@H](CCC(=O)O)NC(=O)[C@@H]2CCCN2C1=O)[C@@H](C)CC [Peptide G33] (HELM PEPTIDE1{G.I.I.S.Q.S.C.P.E.S.F.Y.D.W.F.A.G.Q.V.S.D.P.W.W.C.W}$PEPTIDE1,PEPTIDE1,7:R3-25:R3$$$V2.0; N-terminus and C-terminus assumed; bridges inferred)
potency / affinity at IR, in words ([6]; FP with FITC-RP9, summary of Table 22): less potent
Bndg Ratio IGF-1R/IR ([6]; higher values indicated higher affinity for IR than IGF-1R): 1.3
MiaPaCa Agonist (MiaPaCa cells): +
binding to IGF-1R compared with IR, in words (IGF-1R [7]): comparable binding to IGF-1R and IR
FDC-P2 Agonist ([8]; FDC-P2 cell proliferation, agonist effect): +
agonist activity at IGF-1R, in words [8]: IGF-1R agonist activity
EC50 ([8]; read-out: ED50, agonist activity at IGF-1R): ~10 µM
IGF-1R agonist activity, proliferation of MCF-7 and MiaPaCa cells, in words (MCF-7 cells; MCF-7 and MiaPaCa cells (Tables 27-28)): IGF-1R agonist activity
MCF-7 Agonist (MCF-7 cells): +
antagonist activity at IGF-1R, in words [9]: no antagonist activity

Compound: CC(C)C[C@H](NC(=O)CNC(=O)[C@H](CCCNC(=N)N)NC(=O)CNC(=O)[C@H](CCC(=O)O)NC(=O)[C@@H](N)C(C)C)C(=O)N[C@@H](Cc1ccccc1)C(=O)N[C@@H](Cc1ccc(O)cc1)C(=O)N[C@@H](CC(=O)O)C(=O)N[C@@H](CC(C)C)C(=O)N[C@@H](CC(C)C)C(=O)N[C@@H](CCCNC(=N)N)C(=O)N[C@@H](CCC(N)=O)C(=O)N[C@@H](CC(C)C)C(=O)N[C@@H](CC(C)C)C(=O)N[C@@H](C)C(=O)N[C@@H](CCCNC(=N)N)C(=O)N[C@@H](CCCNC(=N)N)C(=O)N[C@@H](CCC(N)=O)C(=O)N[C@@H](CC(N)=O)C(=O)NCC(=O)O [20E2B-3-C6-IGFR]
IC50 (IR [5]): > 5 µM
Comparisons IGF-1R/IR (IGF-1R [10]): 14.8
Comparisons IR/IGF-1R (IR [11]): 0.1

Compound: RP6-D8B12 (TFYSCLASLLTGTPQPNRGPWERCRWLEQERAWIWCEIQGSGCRA; not fully specified; cysteine pairing not given here)
MiaPaCa Agonist (MiaPaCa cells): +
MCF-7 Agonist (MCF-7 cells): +

Compound: CC(C)C[C@H](NC(=O)[C@H](CCC(=O)O)NC(=O)[C@H](C)NC(=O)[C@@H](NC(=O)[C@H](Cc1ccccc1)NC(=O)[C@H](Cc1c[nH]c2ccccc12)NC(=O)[C@H](CC(=O)O)NC(=O)[C@H](Cc1ccc(O)cc1)NC(=O)[C@H](Cc1ccccc1)NC(=O)[C@H](CC(N)=O)NC(=O)[C@H](C)NC(=O)[C@H](CC(N)=O)NC(=O)[C@H](CCCNC(=N)N)NC(=O)[C@H](CCC(N)=O)NC(=O)[C@H](CC(C)C)NC(=O)[C@H](Cc1c[nH]c2ccccc12)NC(=O)[C@H](CC(=O)O)NC(=O)[C@@H](NC(=O)[C@H](CCCNC(=N)N)NC(=O)CN)C(C)C)C(C)C)C(=O)NCC(=O)O [Peptide S175]
Hill, sIR-Fc, FITC-RP9, FP [6, 16]: −0.56
Hill, sIR-Fc, b-RP9, FRET [1]: −0.74
FFC ([2]; FFC assay potency grade, 0, + to ++++++, −): +++
Hill, sIR-Fc, b-S175, FRET [3]: −0.58
binding to IGF-1R compared with IR, in words (IGF-1R [7]): high binding ratios for IGF-1R over IR
agonist activity at IGF-1R, in words [8]: IGF-1R agonist activity
EC50 ([8]; read-out: Cellular EC50, stimulation of proliferation): 10 µM
Hill, sIR, FITC-RP9, FP [4]: −0.36

Compound: GSLDESFYDWFERQL [Peptide S395]
FFC ([2]; Table 6, free fat cell assay): +
Kd ([12]; Table 6): 91 nM

Compound: CC(C)C[C@H](NC(=O)[C@H](Cc1c[nH]c2ccccc12)NC(=O)[C@H](CCC(=O)O)NC(=O)[C@H](Cc1ccc(O)cc1)NC(=O)CNC(=O)[C@@H]1CCCN1C(=O)[C@H](Cc1c[nH]c2ccccc12)NC(=O)[C@@H](NC(=O)[C@@H](NC(=O)CNC(=O)CN)[C@@H](C)O)C(C)C)C(=O)N[C@@H](CCCNC(=N)N)C(=O)N[C@@H](CC(N)=O)C(=O)N[C@@H](C)C(=O)O [Peptide E8]
Hill, sIR-Fc, FITC-RP9, FP [6, 16]: −0.49
IC50 ([6]; target sIR-Fc, label FITC-RP9, fluorescence polarization, read-out: IC50 (nM), sIR-Fc, FITC-RP9, FP): 207 nM
IC50 ([6]; vs. FITC-RP9, read-out: FP sIR-Fc IC50): 206 nM
competition with FITC-RP9 or b-RP9 peptides for binding to sIR-Fc [1]: able to compete
FFC [2, 14]: −
Hill, sIR-Fc, b-S175, FRET [3]: −0.74
IC50 [3]: 755 nM
binding to IGF-1R compared with IR, in words (IGF-1R [7]): comparable binding to IGF-1R and IR
competition with peptide ligands such as FITC-RP9 for binding to mIR [13]: did not compete
IC50 ([13]; target mIR, label FITC-RP9, fluorescence polarization, read-out: IC50 (nM), mIR, FITC-RP9, FP): > 100000 nM
IC50 ([12]; read-out: IC50 (nM), HIR, 125I-insulin, RRA, target HIR, label 125I-insulin, radio-receptor assay): 2200 nM

Results, then the compound that gave them:

IC50 (IR [5]): 1 µM
Compound: RSEASFHVEFYSWFEEQLRS [RP-2]

IC50 (IR [5]): > 10 µM
Compound: GRFYGWFQDAIDQLMPWGFD [RP-3]

Kd [12, 15]: 55 nM
Compound: DYKDDDDKVRVDWLQRNANFYAWFVAELGGGSGGSGGSGGSGRVDWLQRNANFYDWFVAELGAAAGAPVPYPDPLEPRAA [RB509]

EC50 (MiaPaCa cells; MiaPaCa cells, serum-free conditions, read-out: ED50, proliferation): 5 nM
EC50 (MCF-7 cells; MCF-7 cells, serum-free conditions, read-out: ED50, proliferation): 5 nM
Compound: Insulin-like growth factor 1 [IGF-1, reference compound]

Kd [12, 15]: 44 nM
Compound: MADYKDDDDKGSLDESFYDWFERQLGKKGGSGGSGSLDESFYDWFERQLGKKAAAGAPVPYPDPLEPRPG [RB521]

IC50 (IR [5]): 1 µM
Compound: GSRPVFHEQFYEWFVDQLGL [RP-1]

IC50 (IR [5]): 5 µM
Compound: PPWGARFYDAIEQLVFDNL [RP-4]
